Laboratory results reported in US20260258083A1, “T Cell Engager Masking Molecules” (AMGEN INC., priority 2023, published 2026).
Where a SMILES comes first, the peptide text is derived from it. Where no end group is shown, it is not given here. Side-chain parts run from the residue outwards. [ ]: non-standard residue; d: D form. maleimide = maleimide-thiosuccinimide linker; pGlu = O=C1CC[C@@H](C(=O)O)N1; P(Dap) = not defined here; PEG = not defined here

How the values were obtained:
[1] = Mouse pharmacokinetic study, IV (Example 2); conditions: BL/6, mouse, plasma, iv, 1 mg/kg
Experimental: Example 2: Mouse Pharmacokinetic Study to Evaluate In Vivo PK
The 4-arm 20 kDa PepPOL conjugate was dosed by IV administration to BL/6 mice at 0.82 or 8.2 mg/kg dose levels. […] The PK profiles for each peptide were evaluated by quantifying plasma concentrations of total intact peptide material over time (see methods).

[2] = tested on: FLT3×CD3 TCE (SEQ ID NO: 93); experiment: Association kinetics by KinExA (Table 5); format: binding; conditions: for koff: KinExA, FLT3×CD3 TCE; for fold-koff / fold-kon: relative to the parent CD3ε epitope peptide
Experimental: (§1) • 1. Preparation of NHS-activated sepharose fast-flow beads: • 2. Fast flow sepharose suspension in 100% IPA, washed twice with milliQ H20, mild centrifugation to pool beads in between wash steps. • 3. Equilibrated in 0.15 M NaBO3, pH=8.5 buffer • 4. Added 80 mM PDEA to activate the resin for thiol exchange, 10 mins, r.t. • 5. Equilibrated resin with Hepes Buffered Saline-P (0.01 M HEPES pH 7.4, 0.15 M NaCl, 0.005% v/v Surfactant P2), pH 7.4 binding buffer • 6. Added 30 μg/mL of binding peptide, […] (SEQ ID NO; 297) or pGlu-[…] (SEQ ID NO: 300), reaction for 1 hr to functionalize resin. • 7. Quench with 10 mM L-Cys for 1 hour. • 8. Constant Binding Partner was FLT3×CD3 TCE (SEQ ID NO: 93), MW 105720, 3.2 mg/mL 31.21 uM was diluted to 333 pM and the pGlu-[…] peptide or pGlu-[…]-PEG (Pep-PEG v2) were titrated from 1 uM or 400 nM down to 2.3 pM concentrations relative to effective peptide molarity.
Association Kinetics by KinExA

[3] = target: FLT3×CD3 TCE (SEQ ID NO: 93); experiment: Equilibrium binding affinity measurement by KinExA (Table 5); conditions: for Kd: KinExA, FLT3×CD3 TCE as constant binding partner; for fold-Kd: affinity gain relative to the parent CD3ε epitope peptide
Experimental: Equilibrium Binding Affinity Measurement by KinExA
as §1

[4] = tested on: anti-CD3ε paratope of a CD3ε binding domain of a TCE; experiment: Affinity class of the binding peptide of the masking molecule
Excerpt: The exact value may vary with the respective TCE. However, the […]

[5] = tested on: CDH3×MSLN dual targeting TCE with two CD3e binders (SEQ ID NO 255); experiment: TDCC assay, inhibition of cytotoxicity (Example 15); format: cell-based; conditions: same peptide concentration; PBMC E:T 10:1, 48 or 72 hours
Experimental: Example 15: TCE Masking Molecule Inhibition of Cytotoxicity and Cytokine Release of Representative CDH3×MSLN Dual Targeting TCE with Two CD3e Binders (SEQ ID NO 255)
In vitro potency of CD3e pepPEG was indirectly assessed by measuring in vitro activity of T cell engager (TCE) using T cell dependent cellular cytotoxicity (TDCC) assay. Either 100 pM or 300 pM of TCE was mixed with increasing concentrations of CD3e pepPEG before the mixture is treated to cells. Peripheral blood mononuclear cells (PBMCs) as effector cells were co-cultured with tumor target cells at an effector cell-to-target cell ratio of 10:1 in the presence of mixture of TCE and CD3e pepPEG for 48 hours or 72 hours at 37° C. Cytotoxicity of TCE was assessed by Steady-Glo (Promega) for luciferase-tagged target cells and CellTiter-Glo (Promega) for non-luciferase-tagged target cells after plates were washed to eliminate T cells. Specific cytotoxicity curves and EC50 values were derived using Prism 7.04 (GraphPad). Cytokine production was assessed in supernatants from TDCC assays using electro-chemiluminescence assays (MesoScale Discovery).

[6] = tested on: STEAP1×CD3e heterodimeric TCE; experiment: T cell dependent cellular cytotoxicity (TDCC) assay, inhibition of TCE cytotoxicity; format: cell-based; conditions: STEAP1×CD3, CLDN6×CD3 and DLL3×CD3 TCE; PBMC E:T 10:1, 48 hours
Experimental: Example 12: In Vitro Cytotoxicity and Cytokine Release Inhibition by Binding Peptides
In vitro potency of CD3e pepPEG was indirectly assessed by measuring in vitro activity of T cell engager (TCE) using T cell dependent cellular cytotoxicity (TDCC) assay. […] Cytokine production was assessed in supernatants from TDCC assays using electro-chemiluminescence assays (MesoScale Discovery).

[7] = tested on: CDH3-CD3-MSLN-CD3 TCE (SEQ ID NO 255); experiment: SPR assay of immobilized peptides binding with TCE; conditions: bivalent analyte model
Experimental: (§2) Example 14: SPR Assay of Immobilized Peptides Binding with TCE
(§3) A cytiva CM5 chip was first functionalized with PDEA (2-(2pyridinyldithio)ethaneamine) under standard ((1-ethyl-3-(3-dimethylaminopropyl)carbodiimide)/(N-hydroxysuccinimide) EDC/NHS coupling conditions where the PDEA is dissolved to 20 mM and 1 M NaCl in 0.1 M sodium acetate pH 4.3. Binding peptides were dissolved to 50- or 100-ug/mL respectively in PBST, pH 6.5, and coupling times were optimized to yield the desired surface density.

[8] = tested on: CLDN6xCD3 TCE SEQ ID NO 340; experiment: SPR assay of immobilized peptides binding with TCE; conditions: immobilized peptide, Kinetic 1:1 Binding
Experimental: as §2, §3

[9] = tested on: DLL3xCD3 TCE SEQ ID NO 104; experiment: SPR assay of immobilized peptides binding with TCE; conditions: immobilized peptide, Kinetic 1:1 Binding
Experimental: as §2, §3

[10] = tested on: FLT3xCD3 TCE SEQ ID NO 93; experiment: SPR assay of immobilized peptides binding with TCE; conditions: immobilized peptide, Kinetic 1:1 Binding
Experimental: as §2, §3

[11] = tested on: Steap 1xCD3 TCE SEQ ID NO 373 + 374 + 375; experiment: SPR assay of immobilized peptides binding with TCE; conditions: immobilized peptide, Kinetic 1:1 Binding
Experimental: as §2, §3

[12] = masking molecules tested with respect to TCE of SEQ ID NO 255 (Table 20)
[13] = masking molecules of Example 12

Sequence of FLT3×CD3 TCE (SEQ ID NO: 93) (as listed by the source): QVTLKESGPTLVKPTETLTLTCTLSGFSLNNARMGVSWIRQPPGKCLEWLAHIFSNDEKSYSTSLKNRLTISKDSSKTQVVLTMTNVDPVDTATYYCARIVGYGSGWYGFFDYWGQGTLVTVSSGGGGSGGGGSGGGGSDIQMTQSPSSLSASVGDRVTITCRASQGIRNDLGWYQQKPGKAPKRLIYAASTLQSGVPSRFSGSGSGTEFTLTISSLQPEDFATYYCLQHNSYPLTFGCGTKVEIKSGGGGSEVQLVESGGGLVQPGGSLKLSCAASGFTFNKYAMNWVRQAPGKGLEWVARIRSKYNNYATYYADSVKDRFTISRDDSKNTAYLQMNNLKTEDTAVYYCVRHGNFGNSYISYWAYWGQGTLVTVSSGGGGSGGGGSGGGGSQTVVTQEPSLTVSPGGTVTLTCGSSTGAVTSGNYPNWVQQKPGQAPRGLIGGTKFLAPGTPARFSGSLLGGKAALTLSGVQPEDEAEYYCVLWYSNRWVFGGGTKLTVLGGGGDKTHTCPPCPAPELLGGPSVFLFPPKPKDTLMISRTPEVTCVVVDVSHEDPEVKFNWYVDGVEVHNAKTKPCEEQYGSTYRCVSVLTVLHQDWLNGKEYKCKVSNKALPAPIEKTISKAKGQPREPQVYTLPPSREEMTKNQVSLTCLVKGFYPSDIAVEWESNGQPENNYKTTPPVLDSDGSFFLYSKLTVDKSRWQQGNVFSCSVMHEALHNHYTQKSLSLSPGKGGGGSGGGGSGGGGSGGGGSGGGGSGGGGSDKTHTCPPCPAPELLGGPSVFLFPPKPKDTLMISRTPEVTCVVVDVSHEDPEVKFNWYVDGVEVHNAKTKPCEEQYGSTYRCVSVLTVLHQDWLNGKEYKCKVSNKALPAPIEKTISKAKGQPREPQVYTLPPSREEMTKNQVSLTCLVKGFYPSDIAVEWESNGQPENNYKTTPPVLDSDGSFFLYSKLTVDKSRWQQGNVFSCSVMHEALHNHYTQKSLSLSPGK
Sequence of CDH3×MSLN dual targeting TCE with two CD3e binders (SEQ ID NO 255) (as listed by the source): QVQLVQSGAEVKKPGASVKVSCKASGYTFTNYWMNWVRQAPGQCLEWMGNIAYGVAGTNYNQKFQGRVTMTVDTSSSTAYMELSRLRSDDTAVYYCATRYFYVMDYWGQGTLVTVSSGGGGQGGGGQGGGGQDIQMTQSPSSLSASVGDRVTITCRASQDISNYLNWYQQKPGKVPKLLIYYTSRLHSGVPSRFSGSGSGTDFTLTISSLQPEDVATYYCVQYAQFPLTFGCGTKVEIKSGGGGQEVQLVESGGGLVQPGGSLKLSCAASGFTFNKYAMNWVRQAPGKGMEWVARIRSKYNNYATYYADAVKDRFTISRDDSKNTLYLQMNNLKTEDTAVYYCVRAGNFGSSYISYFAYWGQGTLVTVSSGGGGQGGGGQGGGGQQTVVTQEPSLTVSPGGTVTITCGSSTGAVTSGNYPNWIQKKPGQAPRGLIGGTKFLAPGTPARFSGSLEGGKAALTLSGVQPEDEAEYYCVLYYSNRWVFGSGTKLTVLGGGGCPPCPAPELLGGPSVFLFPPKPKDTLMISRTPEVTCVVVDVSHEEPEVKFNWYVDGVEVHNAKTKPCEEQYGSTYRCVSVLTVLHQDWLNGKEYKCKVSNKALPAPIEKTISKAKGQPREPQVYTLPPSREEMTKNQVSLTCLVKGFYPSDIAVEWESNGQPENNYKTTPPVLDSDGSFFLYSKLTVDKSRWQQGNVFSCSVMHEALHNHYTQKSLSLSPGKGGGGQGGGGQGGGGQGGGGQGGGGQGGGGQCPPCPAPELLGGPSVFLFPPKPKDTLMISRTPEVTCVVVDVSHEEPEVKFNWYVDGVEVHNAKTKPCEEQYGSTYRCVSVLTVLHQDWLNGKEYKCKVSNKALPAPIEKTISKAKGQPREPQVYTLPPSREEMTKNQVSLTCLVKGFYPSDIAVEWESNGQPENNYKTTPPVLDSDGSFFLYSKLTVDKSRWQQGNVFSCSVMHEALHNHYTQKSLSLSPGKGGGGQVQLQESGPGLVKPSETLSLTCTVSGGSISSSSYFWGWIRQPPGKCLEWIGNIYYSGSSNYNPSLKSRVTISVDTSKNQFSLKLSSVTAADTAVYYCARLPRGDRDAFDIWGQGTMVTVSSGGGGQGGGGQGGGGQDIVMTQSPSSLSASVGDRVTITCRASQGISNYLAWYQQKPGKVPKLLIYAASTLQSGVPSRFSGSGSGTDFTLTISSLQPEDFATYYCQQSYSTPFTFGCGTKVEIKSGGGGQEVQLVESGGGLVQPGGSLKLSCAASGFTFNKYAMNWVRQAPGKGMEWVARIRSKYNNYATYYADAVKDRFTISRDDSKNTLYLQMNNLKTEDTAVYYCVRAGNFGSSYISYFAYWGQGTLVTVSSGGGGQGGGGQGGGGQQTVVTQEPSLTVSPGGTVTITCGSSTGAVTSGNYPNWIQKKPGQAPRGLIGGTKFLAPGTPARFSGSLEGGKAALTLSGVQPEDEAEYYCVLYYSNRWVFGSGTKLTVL
Sequence of Steap 1xCD3 TCE SEQ ID NO 373 + 374 + 375 (as listed by the source): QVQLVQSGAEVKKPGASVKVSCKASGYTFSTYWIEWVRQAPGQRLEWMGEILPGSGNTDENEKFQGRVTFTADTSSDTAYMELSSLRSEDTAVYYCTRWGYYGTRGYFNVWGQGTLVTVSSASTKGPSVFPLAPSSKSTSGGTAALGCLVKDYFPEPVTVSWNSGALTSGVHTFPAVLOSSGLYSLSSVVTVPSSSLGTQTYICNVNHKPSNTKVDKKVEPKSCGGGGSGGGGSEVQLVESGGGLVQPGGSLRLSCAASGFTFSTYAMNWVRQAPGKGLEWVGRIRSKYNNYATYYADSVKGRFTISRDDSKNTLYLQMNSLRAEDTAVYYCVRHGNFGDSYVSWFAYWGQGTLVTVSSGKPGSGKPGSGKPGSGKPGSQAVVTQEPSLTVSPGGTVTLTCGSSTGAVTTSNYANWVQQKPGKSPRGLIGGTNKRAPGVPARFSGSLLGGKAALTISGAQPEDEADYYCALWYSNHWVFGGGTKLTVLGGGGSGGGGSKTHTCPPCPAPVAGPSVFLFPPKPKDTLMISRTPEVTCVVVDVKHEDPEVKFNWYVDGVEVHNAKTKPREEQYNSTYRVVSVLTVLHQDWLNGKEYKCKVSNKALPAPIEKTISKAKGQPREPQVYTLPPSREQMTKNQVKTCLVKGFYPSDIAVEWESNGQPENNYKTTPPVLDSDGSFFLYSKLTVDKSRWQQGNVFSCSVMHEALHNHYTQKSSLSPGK
Sequence of Steap 1xCD3 TCE SEQ ID NO 373 + 374 + 375 (as listed by the source partner): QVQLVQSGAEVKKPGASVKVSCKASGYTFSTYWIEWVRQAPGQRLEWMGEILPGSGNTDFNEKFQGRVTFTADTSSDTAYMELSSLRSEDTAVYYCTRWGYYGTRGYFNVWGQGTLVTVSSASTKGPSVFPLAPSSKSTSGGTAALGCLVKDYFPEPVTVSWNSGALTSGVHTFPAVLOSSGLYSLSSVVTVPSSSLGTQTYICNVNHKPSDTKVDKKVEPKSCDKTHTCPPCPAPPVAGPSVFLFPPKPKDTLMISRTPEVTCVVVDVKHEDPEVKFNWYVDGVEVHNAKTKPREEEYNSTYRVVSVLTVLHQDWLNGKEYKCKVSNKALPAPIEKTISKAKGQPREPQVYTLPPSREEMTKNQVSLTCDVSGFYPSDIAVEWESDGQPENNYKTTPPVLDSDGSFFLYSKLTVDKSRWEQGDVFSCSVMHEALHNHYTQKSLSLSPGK
Sequence of Steap 1xCD3 TCE SEQ ID NO 373 + 374 + 375 (as listed by the source partner): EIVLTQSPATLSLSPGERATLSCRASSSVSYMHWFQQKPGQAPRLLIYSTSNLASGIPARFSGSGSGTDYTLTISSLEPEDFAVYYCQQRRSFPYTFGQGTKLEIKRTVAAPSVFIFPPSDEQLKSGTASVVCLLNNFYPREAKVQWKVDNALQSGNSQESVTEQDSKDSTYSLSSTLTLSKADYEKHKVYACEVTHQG
Sequence of STEAP1×CD3e heterodimeric TCE (as listed by the source): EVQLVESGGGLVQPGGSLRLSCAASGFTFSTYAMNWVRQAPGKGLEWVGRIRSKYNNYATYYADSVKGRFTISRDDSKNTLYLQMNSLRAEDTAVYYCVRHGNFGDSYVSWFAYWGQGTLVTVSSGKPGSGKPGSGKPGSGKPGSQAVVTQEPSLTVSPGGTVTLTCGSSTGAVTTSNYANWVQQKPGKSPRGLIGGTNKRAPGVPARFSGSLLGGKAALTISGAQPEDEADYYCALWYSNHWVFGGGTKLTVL

CSCC[C@H](NC(=O)CNC(=O)[C@H](CCCCN)NC(=O)CNC(=O)[C@H](CCSC)NC(=O)[C@H](CCC(=O)O)NC(=O)[C@H](CCC(=O)O)NC(=O)[C@H](CC(N)=O)NC(=O)CNC(=O)[C@H](CC(=O)O)NC(=O)[C@@H](N)CCC(N)=O)C(=O)N[C@@H](CCC(=O)O)C(=O)N[C@@H](CCC(=O)O)C(=O)N[C@@H](CC(N)=O)C(=O)NCC(=O)N[C@@H](CC(=O)O)C(=O)N[C@@H](CCC(N)=O)C(=O)O (H-QDGNEEMGKGMEENGDQ-OH)
half-life [1]: 3 to 10 min

CSCC[C@H](NC(=O)CNC(=O)[C@H](CCCCN)NC(=O)CNC(=O)[C@H](CCSC)NC(=O)[C@H](CCC(=O)O)NC(=O)[C@H](CCC(=O)O)NC(=O)[C@H](CC(N)=O)NC(=O)CNC(=O)[C@H](CC(=O)O)NC(=O)[C@@H](N)CCC(N)=O)C(=O)N[C@@H](CCC(=O)O)C(=O)N[C@@H](CCC(=O)O)C(=O)N[C@@H](CC(N)=O)C(=O)NCC(=O)N[C@@H](CC(=O)O)C(=O)N[C@@H](CCC(N)=O)C(=O)N[C@@H](CS)C(=O)O (H-QDGNEEMGKGMEENGDQC-OH; N-terminus and C-terminus assumed)
half-life [1]: 3 to 10 min

(QDGNEEMG)3K
koff [2]: 0.00016 s⁻¹

QDGNEEMG [reference compound]
koff [2]: 0.0248 s⁻¹

QDGNEEMG-K(Nϵ)-GMEENGDQ (chain 1 QDGNEEMGK; also: branched: chains joined through a Lys, chain 2 on Lys Nε, direction not given here)
Kd [3]: 1.03 nM
fold-Kd [3]: 21.65
koff [2]: 0.00447 s⁻¹
fold-koff [2]: 0.25
fold-kon [2]: 5.38

QDGNEEMG-P(Dap)-GMEENGDQ (chain 1 QDGNEEMG-{P(Dap)}; reading uncertain; also: chains linked via Dap residue 'P(Dap)')
Kd [3]: 1.1 nM
fold-Kd [3]: 32.55
koff [2]: 0.0075 s⁻¹
fold-koff [2]: 0.30
fold-kon [2]: 6.36

QDGNEEMGGMEENGDQ
koff [2]: 0.00471 s⁻¹

QDGNEEMGK
koff [2]: 0.0179 s⁻¹

QDGNEEMGKQDGNEEMG
koff [2]: 0.00497 s⁻¹

QDGNEEMGQDGNEEMG
koff [2]: 0.00586 s⁻¹

pE-DGEEELKGC (PEG)-NH2 [79676-1] ([pGlu]DGEEELKGC(PEG)-NH2; not fully specified; printed as pE-DGEEELKGC (PEG)-NH2; reading uncertain; also: PEG type and size not given here)
Affinity [4, 12]: Intermediote
inhibition of cytotoxicity, in vitro potency (FIG. 20) [5]: comparable results among each other

pE-DGEEELKGC (PEG)-NH2 [79677-1] ([pGlu]DGEEELKGC([maleimide-4‑arm PEG 5 kDa])-NH2; also: 4-arm PEG conjugate, number of peptide copies not given here)
Affinity [4, 12]: Intermediate (an affinity of about 10 to 150, preferably 10 to 100 mM is considered of “high” affinity)
inhibition of cytotoxicity, in vitro potency (FIG. 20) [5]: comparable results among each other

pE-DGEEELKGK (PEG)-OH ([pGlu]DGEEELKGK(PEG 20 kDa)-OH; not fully specified) [79921-1]
Affinity [4, 12]: Intermediate (an affinity of about 10 to 150, preferably 10 to 100 mM is considered of “high” affinity)

pE-DGEEELKGK (mPEG)-OH ([pGlu]DGEEELKGK(mPEG)-OH; numbers in words are those of the source; also: Lys side chain linked via thioether to 20 kDa mPEG) [82138-1]
Affinity [4, 12]: Intermediate (an affinity of about 10 to 150, preferably 10 to 100 mM is considered of “high” affinity)

pE-DGNEELKGC (PEG)-NH2 [79674-1] ([pGlu]DGNEELKGC(PEG)-NH2; not fully specified; printed as pE-DGNEELKGC (PEG)-NH2; reading uncertain; also: PEG type and size not given here)
Affinity [4, 13]: High (an affinity indicated as Kd of about 0.05 to about 10 nM, typically 0.1 pM to 10 nM or 500 pM to 5 nM is considered of “high” affinity)
Affinity [4, 12]: High (an affinity indicated as Kd of about 0.05 to about 10 nM, typically 0.1 pM to 10 nM or 500 pM to 5 nM is considered of “high” affinity)
inhibition activity against TCE cytotoxicity (FIG. 15) [6]: highest inhibition activity

pE-DGNEELKGC (PEG)-NH2 [79675-1] ([pGlu]DGNEELKGC-NH2; also: PEG attached, size and site not given here in name)
Affinity [4, 13]: High (an affinity indicated as Kd of about 0.05 to about 10 nM, typically 0.1 pM to 10 nM or 500 pM to 5 nM is considered of “high” affinity)
Affinity [4, 12]: High (an affinity indicated as Kd of about 0.05 to about 10 nM, typically 0.1 pM to 10 nM or 500 pM to 5 nM is considered of “high” affinity)
inhibition activity against TCE cytotoxicity (FIG. 15) [6]: highest inhibition activity

pE-DGNEELKGC (PEG)-OH (N-terminal pyroglutamate, 20K PEG on Cys) [71203-2]
Affinity [4, 13]: High (an affinity indicated as Kd of about 0.05 to about 10 nM, typically 0.1 pM to 10 nM or 500 pM to 5 nM is considered of “high” affinity)
Affinity [4, 12]: High (an affinity indicated as Kd of about 0.05 to about 10 nM, typically 0.1 pM to 10 nM or 500 pM to 5 nM is considered of “high” affinity)

pE-DGNEELKGK (PEG)-OH ([pGlu]DGNEELKGK-OH; not fully specified (residue 10); printed as pE-DGNEELKGK (PEG)-OH) [73135-2]
Affinity [4, 13]: High (an affinity indicated as Kd of about 0.05 to about 10 nM, typically 0.1 pM to 10 nM or 500 pM to 5 nM is considered of “high” affinity)
Affinity [4, 12]: High (an affinity indicated as Kd of about 0.05 to about 10 nM, typically 0.1 pM to 10 nM or 500 pM to 5 nM is considered of “high” affinity)

pE-DGNEELKGK (mPEG)-OH ([pGlu]DGNEELKGK([acetamide‑thioether-mPEG 20 kDa])-OH) [73136-2]
Affinity [4, 13]: High (an affinity indicated as Kd of about 0.05 to about 10 nM, typically 0.1 pM to 10 nM or 500 pM to 5 nM is considered of “high” affinity)
Affinity [4, 12]: High (an affinity indicated as Kd of about 0.05 to about 10 nM, typically 0.1 pM to 10 nM or 500 pM to 5 nM is considered of “high” affinity)
inhibition of cytotoxicity, in vitro potency (FIG. 20) [5]: comparable results among each other

pGlu-DGNEELKGC ([pGlu]DGNEELKGC; also: entry DGNEELKGC marks its position 1 as pyroglutamic acid)
fast component for the off-rate [7]: 0.0212 s⁻¹
fast component of the on-rate [7]: 2.42e+06 M⁻¹ s⁻¹
ka [8]: 2.72e+06 M⁻¹ s⁻¹
kd [8]: 0.0038 s⁻¹
ka [9]: 2.14e+06 M⁻¹ s⁻¹
kd [9]: 0.00279 s⁻¹
ka [10]: 1.88e+06 M⁻¹ s⁻¹
kd [10]: 0.0024 s⁻¹
ka [11]: 2e+06 M⁻¹ s⁻¹
kd [11]: 0.00514 s⁻¹
